Drawing on ChEMBL document CHEMBL4118241, “Structural basis for the selective inhibition of activated thrombin-activatable fibrinolysis inhibitor (TAFIa) by a selenium-containing inhibitor with chloro-aminopyridine as a basic group” (Bioorg Med Chem Lett, 2018), this text covers IC50 and Ratio IC50 for one molecule.

The target of test [1] is T1, Carboxypeptidase B2 (Homo sapiens, UniProt Q96IY4).
T1 sequence (Q96IY4 whole entry): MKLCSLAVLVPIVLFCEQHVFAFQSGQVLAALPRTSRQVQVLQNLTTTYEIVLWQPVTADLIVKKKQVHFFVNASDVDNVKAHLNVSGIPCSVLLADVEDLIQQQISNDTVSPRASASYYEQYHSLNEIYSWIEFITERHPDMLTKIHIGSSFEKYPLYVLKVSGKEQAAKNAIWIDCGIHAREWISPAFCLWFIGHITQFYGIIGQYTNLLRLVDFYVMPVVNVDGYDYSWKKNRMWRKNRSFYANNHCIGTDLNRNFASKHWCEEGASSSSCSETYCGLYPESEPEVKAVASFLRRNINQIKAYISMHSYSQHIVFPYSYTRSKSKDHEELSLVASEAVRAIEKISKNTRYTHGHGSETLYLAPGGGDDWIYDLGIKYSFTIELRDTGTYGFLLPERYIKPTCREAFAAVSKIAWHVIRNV
Description: Inhibition of human plasma activated thrombin-activatable fibrinolysis inhibitor after 10 mins in presence of DTT.

The target of test [2] is T1, Carboxypeptidase B2. Description: Inhibition of human plasma activated thrombin-activatable fibrinolysis inhibitor after 10 mins in absence of DTT.
The target in test [3] is T2, Carboxypeptidase B (Sus scrofa, UniProt P09955).
T2 sequence (P09955 whole entry): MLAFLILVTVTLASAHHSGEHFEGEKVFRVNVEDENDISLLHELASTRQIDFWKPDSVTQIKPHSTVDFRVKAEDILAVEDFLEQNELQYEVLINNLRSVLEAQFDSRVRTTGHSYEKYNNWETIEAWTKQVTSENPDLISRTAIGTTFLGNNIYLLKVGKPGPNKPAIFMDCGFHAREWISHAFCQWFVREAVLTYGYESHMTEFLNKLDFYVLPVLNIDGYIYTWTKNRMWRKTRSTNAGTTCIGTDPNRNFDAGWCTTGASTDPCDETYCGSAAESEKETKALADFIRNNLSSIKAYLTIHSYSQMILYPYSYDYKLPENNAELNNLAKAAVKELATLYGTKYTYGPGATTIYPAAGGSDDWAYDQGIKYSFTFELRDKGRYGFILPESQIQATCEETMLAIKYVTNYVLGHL
Description: Inhibition of porcine pancreas carboxypeptidase B after 10 mins in presence of DTT.

Test [4] concerns the target T2, Carboxypeptidase B. The test can be described thus: Inhibition of porcine pancreas carboxypeptidase B after 10 mins in absence of DTT.
Test [5] concerns the target T3, Carboxypeptidase N catalytic chain (Homo sapiens, UniProt P15169).
T3 sequence (P15169 whole entry): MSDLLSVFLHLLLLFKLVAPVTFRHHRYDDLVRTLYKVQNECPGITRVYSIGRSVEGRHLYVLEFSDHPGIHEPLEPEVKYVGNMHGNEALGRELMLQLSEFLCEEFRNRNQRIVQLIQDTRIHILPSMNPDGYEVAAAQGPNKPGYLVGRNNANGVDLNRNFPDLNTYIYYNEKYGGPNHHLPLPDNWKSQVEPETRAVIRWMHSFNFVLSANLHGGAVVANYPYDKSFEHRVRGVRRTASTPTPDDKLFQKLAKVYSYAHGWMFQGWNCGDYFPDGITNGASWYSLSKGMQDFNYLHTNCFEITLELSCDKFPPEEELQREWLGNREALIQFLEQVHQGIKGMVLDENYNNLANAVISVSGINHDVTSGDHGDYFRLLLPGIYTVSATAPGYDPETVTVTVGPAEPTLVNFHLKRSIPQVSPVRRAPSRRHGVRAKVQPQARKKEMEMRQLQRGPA
The test can be described thus: Inhibition of human carboxypeptidase N preincubated for 10 mins followed by hippuryl-lysine substrate addition measured after 30 mins in presence of DTT.

The species named for test [6] is Homo sapiens. The test can be described thus: Selectivity ratio of IC50 for human carboxypeptidase N to IC50 for human plasma activated thrombin-activatable fibrinolysis inhibitor.
The target of test [7] is T3, Carboxypeptidase N catalytic chain. Description: Inhibition of human carboxypeptidase N preincubated for 10 mins followed by hippuryl-lysine substrate addition measured after 30 mins in absence of DTT.

The structures appear in SMILES notation.

As to `CCC(=O)[Se]CC(Cc1cnc(N)c(Cl)c1)C(=O)O` (racemic), the IC50 in test [1] is 1.5 nM; in test [2], 370000 nM; in test [3], 29 nM; in test [4] it was 2500 nM; in test [5], more than 380000 nM; in test [7], more than 380000 nM. For the same molecule, the Ratio IC50 in test [6] was more than 250000.

As a reminder, the IC50 is the concentration that gives 50% inhibition.
